Laboratory results taken from US6737383B1, “Herbicidal oxadiazolidines” (priority 1999, dated 2004).

Key:
wheat = assay: Test B pre/postemergence wheat; type: in vivo, Triticum aestivum
In short: (§1)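 Test chemicals in a non-phytotoxic solvent mixture with surfactant were sprayed preemergence onto planted seeds and postemergence onto plants 2 to 18 cm tall (1- to 4-leaf stage). After twelve to sixteen days in a greenhouse, injury was visually rated against untreated controls from 0 (no effect) to 10 (complete control).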

wild oat = assay: Test B pre/postemergence wild oat; type: in vivo, Avena fatua
In short: as §1

giant foxtail = assay: Test B pre/postemergence giant foxtail; type: in vivo, Setaria faberii
In short: as §1

rape = assay: Test B pre/postemergence rape; type: in vivo, Brassica napus
In short: as §1

surinam grass = assay: Test B pre/postemergence surinam grass; type: in vivo, Brachiaria decumbens
In short: as §1

duck salad = assay: Test B flood test duck salad; type: in vivo, Heteranthera limosa
In short: (§2)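 Each value is a visual injury score relative to controls, with 10 meaning complete control and 0 no effect. Evaluation took place twelve to sixteen days after the 2-leaf-stage plants were treated and kept in the greenhouse.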

blackgrass = assay: Test B pre/postemergence blackgrass; type: in vivo, Alopecurus myosuroides; conditions: for Plant response rating, Blackgrass: scale of 0 to 10 where 0 is no effect and 10 is complete control
In short: as §1

purple nutsedge = assay: Test B pre/postemergence purple nutsedge; type: in vivo, Cyperus rotundus
In short: as §1

smallflower flatsedge = assay: Test B flood test smallflower flatsedge; type: in vivo, Cyperus difformis
In short: as §2

bedstraw = assay: Test B pre/postemergence bedstraw; type: in vivo, Galium aparine; conditions: Preemergence; for Plant response rating, Bedstraw: scale of 0 to 10 where 0 is no effect and 10 is complete control; for Bedstraw plant response rating: scale 0 to 10, 0 is no effect, 10 is complete control
In short: as §1

soybean = assay: Test B pre/postemergence soybean; type: in vivo, Glycine max
In short: as §1

rice = assay: Test B flood test rice; type: in vivo, Oryza sativa
In short: as §2

morningglory = assay: Test B pre/postemergence morningglory; type: in vivo, Ipomoea hederacea
In short: as §1

velvetleaf = assay: Test B pre/postemergence velvetleaf; type: in vivo, Abutilon theophrasti
In short: as §1

corn = assay: Test B pre/postemergence corn; type: in vivo, Zea mays
In short: as §1

crabgrass = assay: Test B pre/postemergence crabgrass; type: in vivo, Digitaria sanguinalis
In short: as §1

[1] = Postemergence, Rate 250 g/ha, scale 0 to 10
[2] = Postemergence, Rate 500 g/ha, scale of 0 to 10 where 0 is no effect and 10 is complete control
[3] = Preemergence, Rate 62 g/ha, scale of 0 to 10 where 0 is no effect and 10 is complete control
[4] = Preemergence, Rate 125 g/ha, scale of 0 to 10 where 0 is no effect and 10 is complete control
[5] = Preemergence, Rate 250 g/ha, scale 0 to 10, 0 is no effect, 10 is complete control
[6] = Preemergence, Rate 500 g/ha, scale 0 to 10, 0 is no effect, 10 is complete control
[7] = Rate 62 g/ha, Postemergence, scale 0 to 10 (0 no effect, 10 complete control)
[8] = Rate 125 g/ha, Postemergence, scale 0 to 10, 0 is no effect, 10 is complete control
[9] = Rate 62 g/ha, flood test species, Pre-emergence, visual evaluation after twelve to sixteen days
[10] = Rate 125 g/ha, under heading Pre-emergence, flood test species, visual evaluation after twelve to sixteen days
[11] = Rate 250 g/ha, Pre-emergence (flood test species), scale 0 to 10, 0 is no effect, 10 is complete control
[12] = Rate 500 g/ha, Pre-emergence, flood test species, scale 0 to 10 (0 no effect, 10 complete control)

SMILES: CCc1nc(C)c(C(C)n2c(=O)on(C(=O)N(c3ccc(F)cc3)C(C)C)c2=O)s1 (centres unmarked) [Compound 449]
- Wheat plant response rating (wheat; [1]): 0
- Wheat plant response rating (wheat; [2]): 3
- Plant response rating, Wheat (wheat; [3]): 0
- Plant response rating, Wheat (wheat; [4]): 0
- Wheat plant response rating (wheat; [5]): 0
- Wheat plant response rating (wheat; [6]): 0
- Wheat plant response rating (wheat; [7]): 0
- Wheat plant response rating (wheat; [8]): 0
- Wild oats plant response rating (wild oat; [1]): 0
- Wild oats plant response rating (wild oat; [2]): 4
- Plant response rating, Wild oats (wild oat; [3]): 0
- Plant response rating, Wild oats (wild oat; [4]): 0
- Wild oats plant response rating (wild oat; [5]): 0
- Wild oats plant response rating (wild oat; [6]): 0
- Wild oats plant response rating (wild oat; [7]): 0
- Wild oats plant response rating (wild oat; [8]): 0
- Giant foxtail plant response rating (giant foxtail; [1]): 0
- Giant foxtail plant response rating (giant foxtail; [2]): 3
- Plant response rating, Giant foxtail (giant foxtail; [3]): 2
- Plant response rating, Giant foxtail (giant foxtail; [4]): 6
- Giant foxtail plant response rating (giant foxtail; [5]): 8
- Giant foxtail plant response rating (giant foxtail; [6]): 10
- Giant foxtail plant response rating (giant foxtail; [7]): 0
- Giant foxtail plant response rating (giant foxtail; [8]): 0
- Rape plant response rating (rape; [1]): 0
- Rape plant response rating (rape; [2]): 3
- Plant response rating, Rape (rape; [3]): 0
- Plant response rating, Rape (rape; [4]): 0
- Rape plant response rating (rape; [5]): 0
- Rape plant response rating (rape; [6]): 0
- Rape plant response rating (rape; [7]): 0
- Rape plant response rating (rape; [8]): 0
- B. signalgrass plant response rating (surinam grass; Postemergence, Rate 250 g/ha, scale 0 to 10, 0 no effect, 10 complete control): 0
- B. signalgrass plant response rating (surinam grass; [2]): 4
- Plant response rating, B. signalgrass (surinam grass; [3]): 0
- Plant response rating, B. signalgrass (surinam grass; [4]): 0
- B. signalgrass plant response rating (surinam grass; [5]): 0
- B. signalgrass plant response rating (surinam grass; [6]): 0
- B. signalgrass plant response rating (surinam grass; [7]): 0
- B. signalgrass plant response rating (surinam grass; [8]): 0
- Plant response rating, Ducksalad (0 to 10 scale, 0 is no effect, 10 is complete control) (duck salad; [9]): 0
- Ducksalad plant response rating (0 to 10 scale, 0 is no effect, 10 is complete control) (duck salad; [10]): 0
- Ducksalad plant response rating (duck salad; [11]): 0
- Ducksalad plant response rating (duck salad; [12]): 0
- Blackgrass plant response rating (blackgrass; [1]): 0
- Plant response rating, Blackgrass (blackgrass; Preemergence, Rate 62 g/ha): 0
- Plant response rating, Blackgrass (blackgrass; Preemergence, Rate 125 g/ha): 0
- Blackgrass plant response rating (blackgrass; [5]): 0
- Blackgrass plant response rating (blackgrass; [6]): 3
- Blackgrass plant response rating (blackgrass; [7]): 0
- Blackgrass plant response rating (blackgrass; [8]): 0
- Nutsedge plant response rating (purple nutsedge; [1]): 0
- Nutsedge plant response rating (purple nutsedge; [2]): 0
- Plant response rating, Nutsedge (purple nutsedge; [3]): 0
- Plant response rating, Nutsedge (purple nutsedge; [4]): 0
- Nutsedge plant response rating (purple nutsedge; [5]): 0
- Nutsedge plant response rating (purple nutsedge; [6]): 0
- Nutsedge plant response rating (purple nutsedge; [7]): 0
- Nutsedge plant response rating (purple nutsedge; [8]): 0
- Plant response rating, S. Flatsedge (0 to 10 scale, 0 is no effect, 10 is complete control) (smallflower flatsedge; [9]): 0
- S. Flatsedge plant response rating (0 to 10 scale, 0 is no effect, 10 is complete control) (smallflower flatsedge; [10]): 0
- S. Flatsedge plant response rating (smallflower flatsedge; [11]): 0
- S. Flatsedge plant response rating (smallflower flatsedge; [12]): 0
- Plant response rating, Bedstraw (bedstraw; Rate 62 g/ha): 0
- Plant response rating, Bedstraw (bedstraw; Rate 125 g/ha): 0
- Bedstraw plant response rating (bedstraw; Rate 250 g/ha): 0
- Bedstraw plant response rating (bedstraw; Rate 500 g/ha): 4
- Soybean plant response rating (soybean; [1]): 2
- Soybean plant response rating (soybean; [2]): 2
- Plant response rating, Soybean (soybean; [3]): 0
- Plant response rating, Soybean (soybean; [4]): 0
- Soybean plant response rating (soybean; [5]): 0
- Soybean plant response rating (soybean; [6]): 2
- Soybean plant response rating (soybean; [7]): 0
- Soybean plant response rating (soybean; [8]): 1
- Plant response rating, Rice (0 to 10 scale, 0 is no effect, 10 is complete control) (rice; [9]): 0
- Rice plant response rating (0 to 10 scale, 0 is no effect, 10 is complete control) (rice; [10]): 0
- Rice plant response rating (rice; [11]): 0
- Rice plant response rating (rice; [12]): 0
- Morningglory plant response rating (morningglory; [1]): 5
- Morningglory plant response rating (morningglory; [2]): 5
- Plant response rating, Morningglory (morningglory; [3]): 0
- Plant response rating, Morningglory (morningglory; [4]): 0
- Morningglory plant response rating (morningglory; [5]): 0
- Morningglory plant response rating (morningglory; [6]): 0
- Morningglory plant response rating (morningglory; [7]): 2
- Morningglory plant response rating (morningglory; [8]): 5
- Velvetleaf plant response rating (velvetleaf; [1]): 0
- Velvetleaf plant response rating (velvetleaf; [2]): 0
- Plant response rating, Velvetleaf (velvetleaf; [3]): 0
- Plant response rating, Velvetleaf (velvetleaf; [4]): 0
- Velvetleaf plant response rating (velvetleaf; [5]): 0
- Velvetleaf plant response rating (velvetleaf; [6]): 0
- Velvetleaf plant response rating (velvetleaf; [7]): 0
- Velvetleaf plant response rating (velvetleaf; [8]): 0
- Corn plant response rating (corn; [1]): 0
- Corn plant response rating (corn; [2]): 0
- Plant response rating, Corn (corn; [3]): 0
- Plant response rating, Corn (corn; [4]): 0
- Corn plant response rating (corn; [5]): 0
- Corn plant response rating (corn; [6]): 0
- Corn plant response rating (corn; [7]): 0
- Corn plant response rating (corn; [8]): 0
- Crabgrass plant response rating (crabgrass; [1]): 2
- Crabgrass plant response rating (crabgrass; [2]): 2
- Plant response rating, Crabgrass (crabgrass; [3]): 0
- Plant response rating, Crabgrass (crabgrass; [4]): 3
- Crabgrass plant response rating (crabgrass; [5]): 9
- Crabgrass plant response rating (crabgrass; [6]): 9
- Crabgrass plant response rating (crabgrass; [7]): 0
